From the supplement of paper PMC11061612

How the values were obtained:
NB69 (Neuroblastoma) = test: Bliss excess, mean over the matrix (fraction); higher = more synergy
Method in brief: (§1)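 Cell lines in DMEM/F12 or RPMI with 10% FBS were plated in 1536-well plates, held 24 hours at 37°C, 5% CO2, then given two-drug dose matrices for 72 hours (DMSO typically 0.2%). Viability was read by CellTiter-Glo 2.0 luminescence and scaled as inhibition from 0 (vehicle wells) to 1 (blank wells). Combination Emax is the second-highest inhibition in the matrix; Bliss excess is observed combination effect minus expected EA + EB − EA·EB, EA and EB being single-agent effects.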

[1] = system: KARPAS-299 (T-Cell Non-Hodgkin's Lymphoma); test: as above
Method in brief: as §1

[2] = system: EoL-1-cell (Acute Myeloid Leukemia); test: as above
Method in brief: as §1

[3] = system: MLMA (Other Blood Carcinomas); test: as above
Method in brief: as §1

[4] = system: NCI-H358 (Lung Adenocarcinoma); test: as above
Method in brief: as §1

TK10 (Kidney Carcinoma) = test: as above
Method in brief: as §1

[5] = system: Hs-766T (Pancreatic Carcinoma); test: as above
Method in brief: as §1

[6] = system: Ca9-22 (Head and Neck Carcinoma); test: as above
Method in brief: as §1

TGW (Neuroblastoma) = test: as above
Method in brief: as §1

ACHN (Kidney Carcinoma) [7] = test: as above
Method in brief: as §1

[8] = system: EFM-19 (Breast Carcinoma); test: as above
Method in brief: as §1

[9] = system: PANC-04-03 (Pancreatic Carcinoma); test: as above
Method in brief: as §1

[10] = system: Caov-4 (Ovarian Carcinoma); test: as above
Method in brief: as §1

[11] = system: MIA-PaCa-2 (Pancreatic Carcinoma); test: as above
Method in brief: as §1

D-263MG (Glioblastoma) = test: as above
Method in brief: as §1

[12] = system: RF-48 (B-Cell Non-Hodgkin's Lymphoma); test: combination Emax (second highest fraction inhibited in the dose matrix, 72 h); higher = more inhibition; extreme values may be limits of the assay
Method in brief: as §1

[13] = system: KYSE-450 (Esophageal Squamous Cell Carcinoma); test: as above
Method in brief: as §1

ACHN (Kidney Carcinoma) [14] = test: as above
Method in brief: as §1

[15] = system: PANC-04-03 (Pancreatic Carcinoma); test: as above
Method in brief: as §1

EW-24 (Ewing's Sarcoma) = test: as above
Method in brief: as §1
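Wherever Bliss excess, mean over the matrix is given: after 72 h of two-drug dosing.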

| Structure (SMILES) | Bliss excess (NB69 (Neuroblastoma)) | Bliss excess [1] | Bliss excess [2] | Bliss excess [3] | Bliss excess [4] | Bliss excess (TK10 (Kidney Carcinoma)) | Bliss excess [5] | Bliss excess [6] | Bliss excess (TGW (Neuroblastoma)) | Bliss excess (ACHN (Kidney Carcinoma) [7]) | Bliss excess [8] | Bliss excess [9] | Bliss excess [10] | Bliss excess [11] | Bliss excess (D-263MG (Glioblastoma)) | combination Emax [12] | combination Emax [13] | combination Emax (ACHN (Kidney Carcinoma) [14]) | combination Emax [15] | combination Emax (EW-24 (Ewing's Sarcoma)) |
| --- | --- | --- | --- | --- | --- | --- | --- | --- | --- | --- | --- | --- | --- | --- | --- | --- | --- | --- | --- | --- |
| Cc1cc2ncnn2cc1Nc1ncc2c(n1)n(C1CCOCC1)c(=O)n2C [AZD7648] + COc1cc([C@@H]2c3cc4c(cc3[C@@H](O[C@@H]3O[C@@H]5CO[C@@H](C)O[C@H]5[C@H](O)[C@H]3O)[C@H]3COC(=O)[C@H]23)OCO4)cc(OC)c1O [Etoposide] (first compound max 10 µM, 7x7, partner max 10 µM) | -0.0239 | 0.0522 | 0.191 | -0.0968 | -0.0079 | 0.0187 | -0.0566 | 0.141 | 0.0615 | 0.0535 | -0.0295 | 0.017 | 0.0606 | 0.05 | 0.0729 | 0.755 | 0.459 | 0.772 | 0.335 | 0.714 |
| N#Cc1cnc(Nc2cc(NC[C@H]3CNCCO3)c(C(F)(F)F)cn2)cn1 [SRA737] + C=CCn1c(=O)c2cnc(Nc3ccc(N4CCN(C)CC4)cc3)nc2n1-c1cccc(C(C)(C)O)n1 [AZD1775] (first compound max 10 µM, partner max 1 µM) | 0.163 | 0.0776 | -0.0097 | -0.0114 | -0.0155 | 0.0566 | 0.0161 | 0.154 | -0.0382 | -0.0285 | -0.044 | 0.0182 | 0.0532 | 0.139 | 0.0096 | 0.467 | 0.906 | 0.865 | 0.543 | 0.639 |
| CN(CCO)CC[C@H](CSc1ccccc1)Nc1ccc(S(=O)(=O)NC(=O)c2ccc(N3CCC([C@@H](O)c4ccccc4-c4ccc(Cl)cc4)CC3)cc2)cc1S(=O)(=O)C(F)(F)F [AZD4320] + Cc1cc2ncnn2cc1Nc1ncc2c(n1)n(C1CCOCC1)c(=O)n2C [AZD7648] (first compound max 1 µM, 7x7, partner max 10 µM) | -0.0649 | -0.0343 | 0.0476 | 0.0082 | -0.0394 | -0.014 | -0.0842 | -0.0039 | 0.0125 | -0.0186 | -0.0326 | -0.0556 | -0.0277 | -0.0636 | -0.0192 | 0.809 | 0.111 | 0.162 | 0.229 | 0.851 |
| CN(CCO)CC[C@H](CSc1ccccc1)Nc1ccc(S(=O)(=O)NC(=O)c2ccc(N3CCC([C@@H](O)c4ccccc4-c4ccc(Cl)cc4)CC3)cc2)cc1S(=O)(=O)C(F)(F)F [AZD4320] + C[C@@H](Nc1cc(F)cc(F)c1)c1cc(C(=O)N(C)C)cc2c(=O)cc(N3CCOCC3)oc12 [AZD8186] (first compound max 1 µM, 7x7, partner max 3 µM) | -0.0381 | 0.044 | 0.0255 | 0.0859 | -0.0461 | -0.032 | 0.0113 | -0.0194 | -0.027 | 0.0163 | -0.0426 | 0.0202 | 0.0112 | -0.0084 | 0.0288 | 0.959 | 0.33 | 0.252 | 0.257 | 0.921 |
